Source: the NIST ThermoML archive (doi:10.1021/je400250u)
Values joined by “and” are separate entries in the source; they are usually repeats but may differ in a detail not shown here. Equal entries are not always repeated. Numbers after ± are expanded uncertainties.

Tests used:
[1] = refractive index (Na D-line) (dimensionless); settings: 101.33 kPa, Liquid, Standard Abbe refractometry
[2] = 100 kPa, Liquid; for viscosity: Capillary tube (Ostwald / Ubbelohde) method; for mass density: Vibrating tube method
[3] = refractive index (Na D-line) (dimensionless); xn = mol fraction of the nth substance listed; settings: Liquid, Standard Abbe refractometry, x2 = 0
[4] = xn = mol fraction of the nth substance listed; settings: 100 kPa, Liquid, x2 = 0; for viscosity: Capillary tube (Ostwald / Ubbelohde) method; for mass density: Vibrating tube method

C1CC[C@H]2CCCC[C@H]2C1 [cis-decahydronaphthalene]
Settings | mass density, [2] [kg/m3] | refractive index, [1] | viscosity, [2]
293.15 K | 896.85 ± 0.48 | – | 3.355 ± 0.033 mPa·s
298.15 K | 893.06 ± 0.48 | 1.4776 ± 0.0013 | 3.011 ± 0.03 mPa·s
303.15 K | 889.26 ± 0.48 | – | 2.718 ± 0.028 mPa·s
308.15 K | 885.46 ± 0.48 | 1.4736 ± 0.0013 | 2.47 ± 0.026 mPa·s
313.15 K | 881.65 ± 0.48 | – | 2.252 ± 0.024 mPa·s
318.15 K | 877.85 ± 0.47 | 1.4696 ± 0.0013 | 2.079 ± 0.022 mPa·s and 2.063 ± 0.022 mPa·s
323.15 K | 874.05 ± 0.47 | – | 1.912 ± 0.021 mPa·s and 1.898 ± 0.021 mPa·s

CCCCCCCCCC [decane]
Settings | mass density, [2] [kg/m3] | refractive index, [1] | viscosity, [2] [mPa·s]
293.15 K | 731.14 ± 0.23 | – | 0.916 ± 0.012
298.15 K | 727.43 ± 0.23 | 1.4098 ± 0.0012 | 0.852 ± 0.012
303.15 K | 723.64 ± 0.23 | – | 0.799 ± 0.012
308.15 K | 719.84 ± 0.23 | 1.4052 ± 0.0012 | 0.751 ± 0.011
313.15 K | 716.03 ± 0.23 | – | 0.709 ± 0.011
318.15 K | 712.2 ± 0.23 | 1.4 ± 0.0012 | 0.667 ± 0.011
323.15 K | 708.36 ± 0.23 | – | 0.632 ± 0.011

CCCCCCCCCC [decane] + C1CC[C@H]2CCCC[C@@H]2C1
[3], 101 kPa
Settings | refractive index
298.15 K | 1.4098 ± 0.0007
308.15 K | 1.4052 ± 0.0007
318.15 K | 1.4 ± 0.0007

[4]
Settings | mass density [kg/m3] | viscosity [mPa·s]
293.15 K | 731.14 ± 0.23 | 0.916 ± 0.012
298.15 K | 727.43 ± 0.23 | 0.852 ± 0.012
303.15 K | 723.64 ± 0.23 | 0.799 ± 0.012
308.15 K | 719.84 ± 0.23 | 0.751 ± 0.011
313.15 K | 716.03 ± 0.23 | 0.709 ± 0.011
318.15 K | 712.2 ± 0.23 | 0.667 ± 0.011
323.15 K | 708.36 ± 0.23 | 0.632 ± 0.011

CCCCCCCCCC [decane] + C1CC[C@H]2CCCC[C@H]2C1
[3], 100 kPa
Settings | refractive index
298.15 K | 1.4098 ± 0.0012
308.15 K | 1.4052 ± 0.0012
318.15 K | 1.4 ± 0.0012

[4]
Settings | mass density [kg/m3] | viscosity [mPa·s]
293.15 K | 731.14 ± 0.23 | 0.916 ± 0.012
298.15 K | 727.43 ± 0.23 | 0.852 ± 0.012
303.15 K | 723.64 ± 0.23 | 0.799 ± 0.012
308.15 K | 719.84 ± 0.23 | 0.751 ± 0.011
313.15 K | 716.03 ± 0.23 | 0.709 ± 0.011
318.15 K | 712.2 ± 0.23 | 0.667 ± 0.011
323.15 K | 708.36 ± 0.23 | 0.632 ± 0.011

CCCCCCCCC [nonane]
Settings | mass density, [2] [kg/m3] | refractive index, [1] | viscosity, [2] [mPa·s]
293.15 K | 717.94 ± 0.24 | – | 0.724 ± 0.011
298.15 K | 714.11 ± 0.24 | 1.4026 ± 0.0013 | 0.681 ± 0.011
303.15 K | 710.2 ± 0.24 | – | 0.64 ± 0.011
308.15 K | 706.29 ± 0.25 | 1.3983 ± 0.0013 | 0.604 ± 0.011
313.15 K | 702.35 ± 0.25 | – | 0.571 ± 0.011
318.15 K | 698.4 ± 0.25 | 1.3937 ± 0.0013 | 0.547 ± 0.011
323.15 K | 694.43 ± 0.25 | – | 0.521 ± 0.011
